What all share (assay type): functional
Assay [1] deals with Helicobacter pylori. Kind of assay: Antibacterial activity against Helicobacter pylori strain 2 assessed as diameter of growth inhibition zone at 32 ug/disk after 3-5 days by filter paper disk diffusion method. To be noted: read-out: DIZ. A general note: In agar diffusion tests the substance spreads into inoculated agar from a disc or well.
In assay [2] the test system is Helicobacter pylori. Briefly: Antibacterial activity against Helicobacter pylori strain 1 assessed as diameter of growth inhibition zone at 8 ug/disk after 3-5 days by filter paper disk diffusion method. To be noted: read-out: DIZ.
Assay [3] concerns Klebsiella pneumoniae. Briefly: microbe, parasite or virus in culture. The following applies: ATCC 10031, 24 h.
Description: Antibacterial activity against Klebsiella pneumoniae ATCC 10031 assessed as growth inhibition after 24 hr by microdilution method
Assay [4] relates to Bacillus subtilis. Kind of assay: microbe, parasite or virus in culture. The following applies: ATCC 6633, 24 h.
Description: Antibacterial activity against Bacillus subtilis ATCC 6633 assessed as growth inhibition after 24 hr by microdilution method
In assay [5] the test system is Helicobacter pylori. Briefly: Antibacterial activity against Helicobacter pylori strain 3 assessed as diameter of growth inhibition zone at 32 ug/disk after 3-5 days by filter paper disk diffusion method. The following applies: read-out: DIZ.
Assay [6] concerns Helicobacter pylori. Kind of assay: Antibacterial activity against Helicobacter pylori strain 1 assessed as diameter of growth inhibition zone at 64 ug/disk after 3-5 days by filter paper disk diffusion method. The following applies: read-out: DIZ.
Assay [7] deals with Helicobacter pylori. Kind of assay: Antibacterial activity against Helicobacter pylori strain 3 assessed as diameter of growth inhibition zone at 8 ug/disk after 3-5 days by filter paper disk diffusion method. To be noted: read-out: DIZ.
The subject of assay [8] is Helicobacter pylori. Briefly: Antibacterial activity against Helicobacter pylori strain 3 assessed as diameter of growth inhibition zone at 16 ug/disk after 3-5 days by filter paper disk diffusion method. To be noted: read-out: DIZ.
Assay [9] relates to Staphylococcus epidermidis. Briefly: microbe, parasite or virus in culture. To be noted: ATCC 12228, 24 h.
Description: Antibacterial activity against Staphylococcus epidermidis ATCC 12228 assessed as growth inhibition after 24 hr by microdilution method
The test system of assay [10] is Helicobacter pylori. Briefly: Antibacterial activity against Helicobacter pylori strain 2 assessed as diameter of growth inhibition zone at 8 ug/disk after 3-5 days by filter paper disk diffusion method. The following applies: read-out: DIZ.
For assay [11], the system named is Pseudomonas aeruginosa. Kind of assay: microbe, parasite or virus in culture. To be noted: ATCC 9027, 24 h.
Description: Antibacterial activity against Pseudomonas aeruginosa ATCC 9027 assessed as growth inhibition after 24 hr by microdilution method
For assay [12], the system named is Helicobacter pylori. Kind of assay: Antibacterial activity against Helicobacter pylori strain 1 assessed as diameter of growth inhibition zone at 32 ug/disk after 3-5 days by filter paper disk diffusion method. The following applies: read-out: DIZ.
Assay [13] has as its system Helicobacter pylori. Briefly: Antibacterial activity against Helicobacter pylori strain 2 assessed as diameter of growth inhibition zone at 16 ug/disk after 3-5 days by filter paper disk diffusion method. To be noted: read-out: DIZ.
Assay [14] has as its system Helicobacter pylori. Briefly: Antibacterial activity against Helicobacter pylori strain 3 assessed as diameter of growth inhibition zone at 64 ug/disk after 3-5 days by filter paper disk diffusion method. The following applies: read-out: DIZ.
The subject of assay [15] is Staphylococcus aureus. Kind of assay: microbe, parasite or virus in culture. To be noted: ATCC 6538p, 24 h.
Description: Antibacterial activity against Staphylococcus aureus ATCC 6538p assessed as growth inhibition after 24 hr by microdilution method
Assay [16] concerns Escherichia coli. Briefly: microbe, parasite or virus in culture. To be noted: ATCC 8739, 24 h.
Description: Antibacterial activity against Escherichia coli ATCC 8739 assessed as growth inhibition after 24 hr by microdilution method
Assay [17] relates to Helicobacter pylori. Kind of assay: Antibacterial activity against Helicobacter pylori strain 2 assessed as diameter of growth inhibition zone at 64 ug/disk after 3-5 days by filter paper disk diffusion method. The following applies: read-out: DIZ.
Assay [18] deals with Helicobacter pylori. Kind of assay: Antibacterial activity against Helicobacter pylori strain 1 assessed as diameter of growth inhibition zone at 16 ug/disk after 3-5 days by filter paper disk diffusion method. The following applies: read-out: DIZ.

Converted amounts (≈) assume the structure as drawn.

With `COc1ccc(-c2csc(/N=C3\NC(=O)/C(=C/C4C(=O)Nc5ccccc54)S3)n2)cc1` (centres undefined), the zone of inhibition at 32 µg/disc in [1], in [5] and in assay [12] was 6 mm each time. For the same compound, the zone of inhibition at 8 µg/disc in [2], in assay [7] and in assay [10] was 6 mm throughout. For the same compound, the MIC in assay [3] is more than 100 µg/mL; in assay [4], more than 100 µg/mL; in [9], 100 µg/mL (≈ 223 µM); in assay [11], more than 100 µg/mL; in assay [15] it was more than 100 µg/mL; in assay [16], 100 µg/mL (≈ 223 µM). Moreover, the zone of inhibition at 64 µg/disc in assay [6], in [14] and in [17] was 6 mm each time. For the same compound, the zone of inhibition at 16 µg/disc in [8], in assay [13] and in assay [18] was 6 mm in each case.

Regarding `O=C1N/C(=N\c2nc3ccccc3s2)S/C1=C\C1C(=O)Nc2ccccc21` (centres undefined), the zone of inhibition at 32 µg/disc came to 16 mm in assay [1], 6 mm in [5] and 10 mm in [12]. Moreover, the zone of inhibition at 8 µg/disc is 6 mm in assay [2], 6 mm in assay [7] and 11 mm in assay [10]. Besides, the MIC in assay [3], in assay [4], in [9], in assay [11], in [15] and in [16] was more than 100 µg/mL throughout. For the same compound, the zone of inhibition at 64 µg/disc amounted to 13 mm in assay [6], 10 mm in assay [14] and 18 mm in [17]. The zone of inhibition at 16 µg/disc in assay [8] was found to be 6 mm; in [13] it was 13 mm; in assay [18], 6 mm.

For `O=C1N/C(=N\c2nc(-c3ccccc3)cs2)S/C1=C\c1ccc([N+](=O)[O-])s1`, the MIC in [3], in [4], in assay [9], in assay [11], in assay [15] and in assay [16] was more than 100 µg/mL throughout.

`COc1ccc(-c2csc(/N=C3\NC(=O)/C(=C/c4ccc([N+](=O)[O-])s4)S3)n2)cc1`: the zone of inhibition at 32 µg/disc was found to be 35 mm in [1], 30 mm in assay [5] and 27 mm in [12]. Besides, the zone of inhibition at 8 µg/disc in assay [2] was 22 mm; in [7], 22 mm; in assay [10], 30 mm. Also, the MIC in assay [3] is more than 100 µg/mL; in [4] it was more than 100 µg/mL; in assay [9], more than 100 µg/mL; in assay [11], more than 100 µg/mL; in [15] it was more than 100 µg/mL; in assay [16], 100 µg/mL (≈ 225 µM). In addition, the zone of inhibition at 64 µg/disc is 30 mm in assay [6], 35 mm in assay [14] and 39 mm in assay [17]. Also, the figures for the zone of inhibition at 16 µg/disc in [8], in assay [13] and in assay [18] were 25 mm, 32 mm and 25 mm, respectively.

Regarding `O=C1N/C(=N\c2nc3ccccc3s2)S/C1=C\c1ccc([N+](=O)[O-])s1`, the MIC was more than 100 µg/mL in assay [3]; 0.78 µg/mL (≈ 2.01 µM) in assay [4]; 0.19 µg/mL (≈ 0.489 µM) in assay [9]; more than 100 µg/mL in [11]; 0.39 µg/mL (≈ 1 µM) in assay [15]; more than 100 µg/mL in assay [16].

`Cn1c(/C=C2\S/C(=N/c3nccs3)NC2=O)ccc1[N+](=O)[O-]`: the zone of inhibition at 32 µg/disc in assay [1], in assay [5] and in assay [12] was more than 50 mm each time. Also, the zone of inhibition at 8 µg/disc in assay [2], in assay [7] and in assay [10] was more than 50 mm each time. For the same compound, the MIC in [3] was 0.39 µg/mL (≈ 1.16 µM); in assay [4] it was 0.19 µg/mL (≈ 0.567 µM); in [9], 0.19 µg/mL (≈ 0.567 µM); in assay [11], more than 100 µg/mL; in assay [15], 0.78 µg/mL (≈ 2.33 µM); in [16] it was 12.5 µg/mL (≈ 37.3 µM). Besides, the zone of inhibition at 64 µg/disc in assay [6], in [14] and in [17] was more than 50 mm each time. Besides, the zone of inhibition at 16 µg/disc in assay [8], in [13] and in [18] was more than 50 mm throughout.

`Cn1c(/C=C2\S/C(=N/c3nc(-c4ccccc4)cs3)NC2=O)ccc1[N+](=O)[O-]`: the zone of inhibition at 32 µg/disc in assay [1], in assay [5] and in assay [12] was 6 mm throughout. Moreover, the zone of inhibition at 8 µg/disc in assay [2], in assay [7] and in assay [10] was 6 mm in each case. Further, the MIC in assay [3] was more than 100 µg/mL; in [4], 50 µg/mL (≈ 122 µM); in assay [9] it was 50 µg/mL (≈ 122 µM); in [11], more than 100 µg/mL; in [15], more than 100 µg/mL; in [16] it was more than 100 µg/mL. In addition, the zone of inhibition at 64 µg/disc in assay [6], in assay [14] and in assay [17] was 6 mm each time. The zone of inhibition at 16 µg/disc in [8], in [13] and in assay [18] was 6 mm throughout.

Turning to `COc1ccc(-c2csc(/N=C3\NC(=O)/C(=C/c4ccc([N+](=O)[O-])n4C)S3)n2)cc1`, the zone of inhibition at 32 µg/disc in assay [1], in assay [5] and in assay [12] was 6 mm in each case. Besides, the zone of inhibition at 8 µg/disc in assay [2], in [7] and in assay [10] was 6 mm in each case. In addition, the MIC was 100 µg/mL (≈ 227 µM) in assay [3]; 50 µg/mL (≈ 113 µM) in assay [4]; 25 µg/mL (≈ 56.6 µM) in assay [9]; more than 100 µg/mL in assay [11]; more than 100 µg/mL in [15]; more than 100 µg/mL in assay [16]. Also, the zone of inhibition at 64 µg/disc in assay [6], in assay [14] and in assay [17] was 6 mm throughout. The zone of inhibition at 16 µg/disc in assay [8], in assay [13] and in [18] was 6 mm in each case.

`Cn1c(/C=C2\S/C(=N/c3nc4ccccc4s3)NC2=O)ccc1[N+](=O)[O-]`: the zone of inhibition at 32 µg/disc is 33 mm in assay [1], 26 mm in assay [5] and 29 mm in assay [12]. The zone of inhibition at 8 µg/disc in assay [2] was 23 mm; in assay [7], 22 mm; in assay [10], 27 mm. In addition, the MIC in [3] was 25 µg/mL (≈ 64.9 µM); in assay [4] it was 12.5 µg/mL (≈ 32.4 µM); in assay [9] it was 25 µg/mL (≈ 64.9 µM); in assay [11], more than 100 µg/mL; in assay [15] it was 25 µg/mL (≈ 64.9 µM); in [16] it was more than 100 µg/mL. In addition, the figures for the zone of inhibition at 64 µg/disc in [6], in [14] and in [17] were 32 mm, 30 mm and 35 mm, respectively. In addition, the values for the zone of inhibition at 16 µg/disc in [8], in assay [13] and in assay [18] were 24 mm, 29 mm and 26 mm, respectively.

For `O=C1N/C(=N\c2nccs2)S/C1=C\C1C(=O)Nc2ccccc21` (centres undefined), the zone of inhibition at 32 µg/disc in assay [1] is 18 mm; in [5] it was 14 mm; in [12] it was 13 mm. Moreover, the zone of inhibition at 8 µg/disc in [2] worked out at 10 mm; in [7], 10 mm; in [10], 12 mm. The MIC in [3] is more than 100 µg/mL; in [4] it was 6.25 µg/mL (≈ 18.3 µM); in [9], 12.5 µg/mL (≈ 36.5 µM); in assay [11], more than 100 µg/mL; in assay [15] it was 25 µg/mL (≈ 73 µM); in [16], more than 100 µg/mL. The zone of inhibition at 64 µg/disc was 15 mm in [6], 15 mm in [14] and 20 mm in assay [17]. In addition, the zone of inhibition at 16 µg/disc in assay [8] stood at 10 mm; in assay [13], 14 mm; in [18], 12 mm.

As for `O=C(O)c1cn(C2CC2)c2cc(N3CCNCC3)c(F)cc2c1=O` [CIPROFLOXACIN], the MIC amounted to 0.006 µg/mL (≈ 0.0181 µM) in assay [3]; 0.19 µg/mL (≈ 0.573 µM) in [4]; 0.097 µg/mL (≈ 0.293 µM) in assay [9]; 0.39 µg/mL (≈ 1.18 µM) in assay [11]; 0.19 µg/mL (≈ 0.573 µM) in [15].

In the case of `Cc1ncc([N+](=O)[O-])n1CCO` [METRONIDAZOLE], the zone of inhibition at 16 µg/disc in [8], in assay [13] and in assay [18] was 14 mm throughout.

Values taken from ChEMBL document CHEMBL3045421, “5-Nitro-heteroarylidene analogs of 2-thiazolylimino-4-thiazolidinones as a novel series of antibacterial agents” (2013).
